In patent publication US20230255970A1, “COMPOSITIONS AND METHODS FOR TREATING PROLIFERATIVE DISEASES” (The Broad Institute, Inc., priority 2020, published 2023):

How the values were obtained:
[1] = test system: STS-109 human UPS cells; assay: Proliferation assay, STS-109 cells; assay type: cell-based; conditions: 10 μM daily
Text: (§1) YAP1 cell culture and treatments: Eisinger lab: Murine KP230 cells, a Yap1-dependent cancer cell line, were derived from a tumor from the KP mouse model (Kras^G12/D; Trp53^f/fl), as described in Eisinger-Mathason, T. S. K. et al., Proc. Natl. Acad. Sci. U.S.A 112 (2015): E3402-11, which is hereby incorporated by reference in its entirety. STS-109 UPS cells were derived from a human UPS tumor and validated by Rebecca Gladdy, MD (Sinai Health System, Toronto, Ontario, Canada). TC32 cells were a gift from Patrick Grohar, MD, PhD (Children's Hospital of Philadelphia). HT-1080, HCT-116, and HEK293T cells were purchased from ATCC. KP230, HT-1080, and HEK-293T cells were grown in DMEM with 10% FBS, 1% L-glutamine, and 1% penicillin/streptomycin (P/S). STS-109 cells were cultured in DMEM with 20% FBS, 1% L-glutamine, and 1% P/S. TC32 cells were grown in RPMI with 10% FBS, 1% L-glutamine, and 1% P/S. HCT-116 cells were cultured in McCoy's 5A medium with 10% FBS and 1% P/S. All cells were confirmed to be negative for mycoplasma contamination and were maintained in an incubator at 37C with 5% CO2. […]
(§2) NB4A treatment: Cells were treated with 10 μM of each inhibitor or an equivalent volume of DMSO every 24 hours for 3-8 days, and counted with a hemocytometer with trypan blue exclusion daily (KP230, HT-1080, TC32, HCT-116), or every 2 days (STS-109).

[2] = test system: HCT-116 colon cancer cells; assay: Proliferation assay, HCT-116 cells; assay type: cell-based; conditions: 10 μM daily for 72 hours
Text: as §1, §2

[3] = test system: YAP1; assay: Western blot of phospho-YAP1 (S127) in H9 cells; assay type: cell-based, human; conditions: 24 hrs
Method: H9 hPSCs (WiCell) were maintained on vitronectin (Thermo Fisher)-coated plates in Essential 8 (E8) medium. The cells were routinely passaged using 0.5 mM EDTA and treated with 5 μM Y-27632 dihydrochloride (Tocris) on the first day. For testing the effects of the small molecules, H9 hPSCs were seeded at 50K cells/cm^2 on vitronectin-coated plates in E8 medium supplemented with 5 μM Y-27632 dihydrochloride (day 0). On day 1, the medium was switched to E8 medium. On day 2, the medium was switched to E8 medium supplemented with the small molecules. Following overnight incubation, the cells were collected for subsequent analysis on day 3.
YAP1-related Western blotting: The cells were lysed in RIPA buffer (Pierce) supplemented with Halt Protease inhibitor cocktail and Halt Phosphatase inhibitor cocktail. Cells were lysed in hot Tris-SDS buffer (pH 7.6) and boiled for 5 minutes at 95° C. The protein concentration of each sample was quantified using the Pierce BCA protein assay (Thermo Fisher). The proteins were resolved by SDS-PAGE and transferred to PVDF membranes using the Trans-Blot Turbo Transfer system (Bio-Rad). The membranes were blocked in 5% non-fat milk in TBS-T for up to 1 hour at room temperature and incubated with primary antibodies in 5% bovine serum albumin in TBS-T overnight at 4° C. […]

[4] = test system: Yap1; assay: Nuclear Yap1 immunofluorescence in KP230 cells; assay type: cell-based, mouse
Text: as §1, with “(P/S).” for “(P/S). STS-109 cells were cultured in DMEM with 20% FBS, 1% L-glutamine, and 1% P/S. TC32 cells were grown in RPMI with 10% FBS, 1% L-glutamine, and 1% P/S. HCT-116 cells were cultured in McCoy's 5A medium with 10% FBS and 1% P/S. All cells were confirmed to be negative for mycoplasma contamination and were maintained in an incubator at 37C with 5% CO2.”
YAP1-related immunofluorescence and image analysis: Cells were grown on poly-L-lysine-coated chamber slides were fixed in 4% PFA (15 minutes at room temperature), permeabilized with 0.5% Triton-X100/PBS (15 minutes at room temperature), and blocked with 5% goat serum (Vector Laboratories S-1000; 1 hour at room temperature). […] The ratio of nuclear to total Yap1 expression was determined after subtracting out background GFP signal from no-primary antibody controls.

[5] = test system: TRAF2 overexpression in U2OS cells; assay: Cell Painting morphological profile matching to TRAF2 overexpression; assay type: cell-based, human; conditions: Pearson correlation of Cell Painting signatures, U2OS cells
Outline: (§3)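 Compound-treated U2OS cells were stained with six fluorescent labels and imaged, and morphological profiles were standardized plate-wise against controls. Replicate profiles were averaged into signatures. Compound and gene-overexpression signatures were matched by Pearson correlation.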

[6] = test system: U2OS cells; assay: Cell count in U2OS Cell Painting images; assay type: cell-based, human; conditions: U2OS Cell Painting
Outline: as §3

c1ccc(CNc2ncnc3ccccc23)cc1 [BRD-K43796186, N-benzylquinazolin-4-amine]
proliferation [1]: did not affect the proliferation | proliferation [2]: did not affect the proliferation | YAP1 S127 phosphorylation [3]: decreased YAP1 S127 phosphorylation | Yap1 nuclear localization [4]: significantly attenuated | Corr. to TRAF2 [5]: −0.3778 | Avg. Cell Count z-score [6]: −0.5708
